Reference: patent US8445502B2, “Pharmaceutical formulations comprising salts of a protein kinase inhibitor and methods of using same” (Astex Pharmaceuticals, Inc., priority 2007, dated 2013)

Legend:
[1] = pKa by mixed-solvent (methanol-water) method; format: physicochemical
Experimental: The apparent pKa in aqueous solution was extrapolated from the determined pKa values (the apparent ionization constants in methanol-water solvent) plotted versus the percent methanol used. The apparent pKa of MP470 was determined to be 6.7.

[2] = log P by shake-flask octanol/water partitioning; format: physicochemical; settings: aqueous phase citrate buffer pH 2
Experimental: The log P value for MP470 was determined by the traditional shake-flask method with octanol/water partitioning. Citrate buffer at pH 2 was the aqueous phase. The concentration of the solute in the organic phase was analyzed by HPLC analysis of MP470 with respect to a calibration curve ranging from 0.2 to 200 μg/mL MP470. The majority of MP470 was found in the organic phase. The log P value of MP470 was determined to be 2.3.

[3] = test system: SF-767 glioblastoma multiforme cells; test: MTS cell death assay with ionizing radiation; format: cell-based
Experimental: SF-767 glioblastoma multiforme cells were treated with MP470 at 1 μM, 800c Gy IR (ionizing radiation), or a combination of both.

[4] = test system: Rad51 in cancer cell lines; test: Rad51 Western blot after ionizing radiation; format: cell-based; settings: cells pretreated with MP470
Description: Similar to IR, the sensitivity of cancer cells to platinum-based drugs can be affected by the level of Rad51 protein.

[5] = both, beagle, dog, in vivo, 5 days
Experimental: In the first study, 2 doses of MP470 were tested, a low dose of 10 mg/kg followed 48 hours later by a dose of 20 mg/kg. Dosage escalation stopped after the 20 mg/kg dose due to observations of adverse clinical signs. After the second dose, the animals were observed everyday for 3 additional days for adverse clinical signs. Over the course of the 5 days of study both dogs gained weight. […] The female dog experienced retching immediately after dosing. Upon administration of the 20 mg/kg dose both the female and male dog experienced unacceptable adverse effects. After three more days of observation both dogs were euthanized and necropsy was performed. The necropsy observations considered abnormal include thrombus observed in the dosing veins of both dogs and possible mild venous congestion in the meningeal vein between brain hemispheres and in the venous sinus on cranial floor of the male animal. From this study the maximally tolerated dose in beagle dogs was determined to be 20 mg/kg.

[6] = rat, in vivo, iv, 10 mg/kg
Experimental: In the first IV administration study of MP470 free base, six groups of 6 rats were to be exposed to either vehicle alone or MP470 at 10, 20, 40, 80, or 160 mg/kg. Dosing was administered via a tail vein over approximately 30 minutes. Animals were observed immediately and 10 minutes and one hour after dosing, and daily thereafter for 4 additional days. […] Red urine and lethargy were present at 1 hour post dosing, but animals recovered and appeared normal thereafter. […] All other animals were euthanized and necropsied at day 4 appeared normal.

in vivo = settings: both, beagle, dog, iv
Experimental: The purpose of these studies was to determine the highest level of MP470 free base that can be administered intravenously to dogs without causing extreme illness, maximum tolerated dose (MTD). In both studies a single male and a single female beagle dog were injected intravenously with MP470.
In the second study we tested doses of 0.625, 1.25, 2.5, 5, 10, and 20 mg/kg MP470 in 1 male and 1 female beagle dog with 48-96 hrs between dose escalations, with the exception of 11 days between dose 5 and 6. Additionally, in this study approximately 5-10 second electrocardiograph (ECG) tracings in a lead II configuration were obtained from each dog prior to each dose, approximately 20 minutes after the start of dosing, and immediately after completion of dosing.

[7] = Solubility of MP470.HCl in common solvents at room temperature; format: physicochemical
Flt3 (D835Y) (h) = Flt3 (D835Y) (h) (Homo sapiens, UniProt P36888, D835Y); test: Mutant kinase IC50 screen; format: biochemical
Experimental: (§1) IC50 values for MP470.HCl were determined for four mutant c-Kit kinases, one mutant Flt3 kinase, and two mutant PDGFRα kinases.

PDGFRα (D842V) (h) = PDGFRα (D842V) (h) (Homo sapiens, UniProt P16234, D842V); test: Mutant kinase IC50 screen; format: biochemical
Sequence of PDGFRα (D842V) (h) (P16234 24-1089 D842V): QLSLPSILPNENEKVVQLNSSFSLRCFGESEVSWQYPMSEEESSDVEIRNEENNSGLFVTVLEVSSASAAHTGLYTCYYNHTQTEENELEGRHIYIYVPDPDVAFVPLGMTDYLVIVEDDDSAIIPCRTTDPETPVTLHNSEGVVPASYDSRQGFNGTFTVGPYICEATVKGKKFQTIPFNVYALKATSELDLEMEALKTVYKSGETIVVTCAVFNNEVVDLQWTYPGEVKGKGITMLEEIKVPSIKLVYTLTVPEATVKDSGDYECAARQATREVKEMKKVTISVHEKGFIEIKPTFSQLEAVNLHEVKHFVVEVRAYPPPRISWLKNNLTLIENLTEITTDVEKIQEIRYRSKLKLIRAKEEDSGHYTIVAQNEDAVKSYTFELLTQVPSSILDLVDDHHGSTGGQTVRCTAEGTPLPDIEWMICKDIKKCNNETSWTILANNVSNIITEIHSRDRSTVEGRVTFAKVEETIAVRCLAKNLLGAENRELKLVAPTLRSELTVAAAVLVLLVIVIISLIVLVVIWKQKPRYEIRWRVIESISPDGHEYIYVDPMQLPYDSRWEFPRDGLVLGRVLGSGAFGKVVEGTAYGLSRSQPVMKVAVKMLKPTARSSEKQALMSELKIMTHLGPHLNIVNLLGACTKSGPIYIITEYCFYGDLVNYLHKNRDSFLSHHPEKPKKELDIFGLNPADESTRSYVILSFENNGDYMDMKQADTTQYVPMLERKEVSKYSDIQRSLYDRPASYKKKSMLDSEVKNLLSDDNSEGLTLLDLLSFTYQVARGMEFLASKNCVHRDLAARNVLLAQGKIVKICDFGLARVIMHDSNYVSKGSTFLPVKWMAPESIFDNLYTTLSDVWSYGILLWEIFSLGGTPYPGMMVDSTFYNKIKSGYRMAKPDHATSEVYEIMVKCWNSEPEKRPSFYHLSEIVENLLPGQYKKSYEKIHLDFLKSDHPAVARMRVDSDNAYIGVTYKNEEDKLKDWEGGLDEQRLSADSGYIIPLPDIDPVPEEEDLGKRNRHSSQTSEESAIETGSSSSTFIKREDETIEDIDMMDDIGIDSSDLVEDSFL
Experimental: as §1

PDGFRα (V561D) (h) = PDGFRα (V561D) (h) (Homo sapiens, UniProt P16234, V561D); test: Mutant kinase IC50 screen; format: biochemical
Sequence of PDGFRα (V561D) (h) (P16234 24-1089 V561D): as the sequence (P16234 24-1089 D842V) above, with V538D, V819D counted along it
Experimental: as §1

cKit (D816H) (h) = cKit (D816H) (h) (Homo sapiens, UniProt P10721, D816H); test: Mutant kinase IC50 screen; format: biochemical
Sequence of cKit (D816H) (h) (P10721 26-976 D816H): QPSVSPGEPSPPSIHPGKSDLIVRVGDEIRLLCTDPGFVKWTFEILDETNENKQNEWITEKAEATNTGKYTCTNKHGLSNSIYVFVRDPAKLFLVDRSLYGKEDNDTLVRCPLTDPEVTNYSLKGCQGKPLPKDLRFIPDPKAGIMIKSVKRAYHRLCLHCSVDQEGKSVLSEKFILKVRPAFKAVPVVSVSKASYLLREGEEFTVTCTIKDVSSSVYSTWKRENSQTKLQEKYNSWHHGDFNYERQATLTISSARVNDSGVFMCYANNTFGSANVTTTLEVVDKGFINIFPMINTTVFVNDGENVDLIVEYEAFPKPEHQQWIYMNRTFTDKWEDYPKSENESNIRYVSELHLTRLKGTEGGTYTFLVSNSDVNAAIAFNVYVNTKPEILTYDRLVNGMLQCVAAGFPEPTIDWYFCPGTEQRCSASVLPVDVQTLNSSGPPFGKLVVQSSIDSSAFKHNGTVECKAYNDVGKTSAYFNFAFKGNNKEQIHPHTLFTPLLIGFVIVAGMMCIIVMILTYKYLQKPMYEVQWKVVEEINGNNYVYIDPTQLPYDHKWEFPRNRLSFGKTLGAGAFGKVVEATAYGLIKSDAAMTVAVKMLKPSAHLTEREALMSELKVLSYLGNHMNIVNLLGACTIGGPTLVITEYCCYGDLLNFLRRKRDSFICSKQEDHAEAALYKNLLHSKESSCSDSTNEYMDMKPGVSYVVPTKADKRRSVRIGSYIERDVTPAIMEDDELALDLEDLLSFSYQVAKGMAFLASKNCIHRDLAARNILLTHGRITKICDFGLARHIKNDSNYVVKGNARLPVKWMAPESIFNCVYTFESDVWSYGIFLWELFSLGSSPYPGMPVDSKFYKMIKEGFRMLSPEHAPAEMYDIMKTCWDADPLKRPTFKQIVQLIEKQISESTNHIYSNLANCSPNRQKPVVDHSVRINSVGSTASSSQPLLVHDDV
Experimental: as §1

cKit (D816V) (h) = cKit (D816V) (h) (Homo sapiens, UniProt P10721, D816V); test: Mutant kinase IC50 screen; format: biochemical
Sequence of cKit (D816V) (h) (P10721 26-976 D816V): as the sequence (P10721 26-976 D816H) above, with H791V counted along it
Experimental: as §1

cKit (V560G) (h) = cKit (V560G) (h) (Homo sapiens, UniProt P10721, V560G); test: Mutant kinase IC50 screen; format: biochemical
Sequence of cKit (V560G) (h) (P10721 26-976 V560G): as the sequence (P10721 26-976 D816H) above, with V535G, H791D counted along it
Experimental: as §1

cKit (V654A) (h) = cKit (V654A) (h) (Homo sapiens, UniProt P10721, V654A); test: Mutant kinase IC50 screen; format: biochemical
Sequence of cKit (V654A) (h) (P10721 26-976 V654A): as the sequence (P10721 26-976 D816H) above, with V629A, H791D counted along it
Experimental: as §1

OVCAR-3 cells = test: OVCAR-3 cell proliferation; format: cell-based; settings: Homo sapiens
Experimental: The IC50 for MP470.HCl on OVCAR-3 cells proliferation was 0.9 μM (FIG. 4). It appears to have a cytostatic effect on cancer cells in addition to being cytotoxic.

A549 NSCLC cells = test: Sensitization of NSCLC cells to carboplatin; format: cell-based; settings: Homo sapiens; A549, single agent
Experimental: (§2) The non-small cell lung cancer cell lines A549 and NCI-H647 were used for these experiments. […] The IC50 concentrations observed for carboplatin against both of these cell lines was consistent with this.
(§3) Two sub-IC50 doses of MP470.HCl were tested in combination with carboplatin to evaluate possible synergism between these agents and consequently a lower IC50 value for carboplatin in each of the cell lines.
(§4) MP470.HCl was able to dramatically decrease the IC50 of carboplatin in these cells.

NCI-H647 NSCLC cells = test: Sensitization of NSCLC cells to carboplatin; format: cell-based; settings: Homo sapiens; NCI-H647, single agent
Experimental: as §2, §3, §4

[8] = both, Sprague Dawley, rat, in vivo, 72 h
Experimental: Four groups of Sprague Dawley rats, each consisting of two males and two females, received escalating single doses of 100, 200, 800 and 2000 mg/kg of the test article. MP470.HCl was suspended in an aqueous vehicle constituting 0.5% w/v carboxymethylcellulose and administered by oral gavage. […] Doses were based on body weights on the day of dosing. The animals were euthanized after the last observation. […] A single oral dose no-observed-effect level (NOEL) was 2000 mg/kg. Acute maximum tolerated dose (MTD) was greater than 2000 mg/kg (highest dose tested).

## S=C(NCc1ccc2c(c1)OCO2)N1CCN(c2ncnc3c2oc2ccccc23)CC1 [MP470, 4-[1]benzofuro[3,2-d]pyrimidin-4-yl-N-(1,3-benzodioxol-5-ylmethyl)piperazine-1-carbothioamide]
[1]; 30% (v/v) methanol
  pKa (apparent ionization constant): 6.81
[1]; 60% (v/v) methanol
  pKa (apparent ionization constant): 7.09
[1]; 90% (v/v) methanol
  pKa (apparent ionization constant): 7.10
[1]; aqueous solution, extrapolated from pKa values in methanol-water
  apparent pKa: 6.7
[2]
  logP: 2.3
[3]; MP470 1 μM combined with 800c Gy ionizing radiation
  Increase in cell death over either agent alone: more than two-fold
[3]; MP470 at 1 μM alone
  Cell death (MTS assay): will induce cell death
[4]
  Rad51 protein level after ionizing radiation: Rad51 remained near control levels even after exposure to IR
[5]
  maximally tolerated dose: 20 mg/kg
[6]
  mortality at the low dose: the third rat died after dosing
In vivo
  MTD at 0.5 h: 10 mg/kg

## Cl.S=C(NCc1ccc2c(c1)OCO2)N1CCN(c2ncnc3c2oc2ccccc23)CC1 [MP470.HCl, 4-[1]benzofuro[3,2-d]pyrimidin-4-yl-N-(1,3-benzodioxol-5-ylmethyl)piperazine-1-carbothioamide hydrochloride]
[7]; Benzyl alcohol
  Solubility: 48000 µg/mL
[7]; DMF
  Solubility: 9000 µg/mL
[7]; DMSO
  Solubility: 17000 µg/mL
[7]; Ethanol
  Solubility: 400 µg/mL
[7]; Glycerol
  Solubility: 4000 µg/mL
[7]; Methanol
  Solubility: 3000 µg/mL
[7]; Propylene glycol
  Solubility: 4000 µg/mL
[7]; Water
  Solubility (mg/mL): < detectable limit by HPLC
Flt3 (D835Y) (h)
  IC50: 8.05 µM
PDGFRα (D842V) (h)
  IC50: 0.081 µM
PDGFRα (V561D) (h)
  IC50: 0.04 µM
cKit (D816H) (h)
  IC50: 0.01 µM
cKit (D816V) (h)
  IC50: 0.95 µM
cKit (V560G) (h)
  IC50: 0.034 µM
cKit (V654A) (h)
  IC50: 0.127 µM
OVCAR-3 cells
  IC50: 900 nM
A549 NSCLC cells
  IC50: 6900 nM
NCI-H647 NSCLC cells
  IC50: 7860 nM
[8]
  single oral dose no-observed-effect level (NOEL): 2000 mg/kg
[8]; po
  Acute maximum tolerated dose (MTD): greater than 2000 mg/kg
